Data taken from publication PMC6073568, “Efficient Lead Finding, Activity Enhancement and Preliminary Selectivity Control of Nuclear Receptor Ligands Bearing a Phenanthridinone Skeleton” (International Journal of Molecular Sciences, 2018).
Read-outs that look alike come from different tables or passages of the source.

How the values were obtained:
GR = biological target: T1, GR (Homo sapiens, UniProt P04150); test: GR reporter gene assay in HEK293; format: cell-based; conditions: reporter gene assay, HEK293; agonist dexamethasone 1 nM; read-out: GR antagonistic activity (IC50)
T1 construct: expressed in transfected cells; host or cells: HEK293
T1 sequence (P04150 1-777): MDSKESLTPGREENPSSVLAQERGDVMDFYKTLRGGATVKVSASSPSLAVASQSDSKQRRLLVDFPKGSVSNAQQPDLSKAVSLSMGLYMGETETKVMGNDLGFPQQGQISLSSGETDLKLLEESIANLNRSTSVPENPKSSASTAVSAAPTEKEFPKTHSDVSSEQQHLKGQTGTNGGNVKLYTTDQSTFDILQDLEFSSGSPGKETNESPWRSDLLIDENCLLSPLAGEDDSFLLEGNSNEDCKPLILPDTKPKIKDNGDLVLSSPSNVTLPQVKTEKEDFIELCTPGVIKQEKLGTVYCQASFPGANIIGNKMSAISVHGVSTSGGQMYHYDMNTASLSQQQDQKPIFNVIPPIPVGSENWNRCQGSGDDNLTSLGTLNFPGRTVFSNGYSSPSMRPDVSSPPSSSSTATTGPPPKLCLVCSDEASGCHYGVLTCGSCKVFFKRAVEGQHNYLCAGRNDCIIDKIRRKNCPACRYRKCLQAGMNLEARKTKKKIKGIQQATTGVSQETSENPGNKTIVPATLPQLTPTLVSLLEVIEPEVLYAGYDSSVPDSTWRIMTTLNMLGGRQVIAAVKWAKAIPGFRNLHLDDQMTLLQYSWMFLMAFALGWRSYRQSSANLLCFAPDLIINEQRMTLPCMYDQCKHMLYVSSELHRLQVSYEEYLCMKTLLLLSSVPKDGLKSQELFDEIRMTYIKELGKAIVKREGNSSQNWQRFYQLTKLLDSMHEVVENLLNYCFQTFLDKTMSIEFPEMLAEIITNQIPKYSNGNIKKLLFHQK

LXRβ = biological target: T2, LXRβ (Homo sapiens, UniProt P55055); test: LXRβ reporter gene assay in HEK293; format: cell-based; conditions: read-out: LXRβ antagonistic activity (IC50)
T2 construct: CMX-GAL4N-hLXRβ-LBD; expressed in transfected cells; host or cells: HEK293
T2 sequence (P55055 222-460 limits assumed): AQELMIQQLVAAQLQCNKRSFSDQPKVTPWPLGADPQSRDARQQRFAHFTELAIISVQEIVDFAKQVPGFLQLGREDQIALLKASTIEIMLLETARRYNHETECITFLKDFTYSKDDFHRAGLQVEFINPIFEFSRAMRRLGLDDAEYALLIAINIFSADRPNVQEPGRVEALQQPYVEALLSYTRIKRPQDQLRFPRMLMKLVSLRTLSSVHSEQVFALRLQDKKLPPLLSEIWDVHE

AR = biological target: T3, AR (Homo sapiens, UniProt P10275); test: AR reporter gene assay in HEK293; format: cell-based; conditions: for IC50: reporter gene assay, HEK293
T3 sequence (P10275 1-920): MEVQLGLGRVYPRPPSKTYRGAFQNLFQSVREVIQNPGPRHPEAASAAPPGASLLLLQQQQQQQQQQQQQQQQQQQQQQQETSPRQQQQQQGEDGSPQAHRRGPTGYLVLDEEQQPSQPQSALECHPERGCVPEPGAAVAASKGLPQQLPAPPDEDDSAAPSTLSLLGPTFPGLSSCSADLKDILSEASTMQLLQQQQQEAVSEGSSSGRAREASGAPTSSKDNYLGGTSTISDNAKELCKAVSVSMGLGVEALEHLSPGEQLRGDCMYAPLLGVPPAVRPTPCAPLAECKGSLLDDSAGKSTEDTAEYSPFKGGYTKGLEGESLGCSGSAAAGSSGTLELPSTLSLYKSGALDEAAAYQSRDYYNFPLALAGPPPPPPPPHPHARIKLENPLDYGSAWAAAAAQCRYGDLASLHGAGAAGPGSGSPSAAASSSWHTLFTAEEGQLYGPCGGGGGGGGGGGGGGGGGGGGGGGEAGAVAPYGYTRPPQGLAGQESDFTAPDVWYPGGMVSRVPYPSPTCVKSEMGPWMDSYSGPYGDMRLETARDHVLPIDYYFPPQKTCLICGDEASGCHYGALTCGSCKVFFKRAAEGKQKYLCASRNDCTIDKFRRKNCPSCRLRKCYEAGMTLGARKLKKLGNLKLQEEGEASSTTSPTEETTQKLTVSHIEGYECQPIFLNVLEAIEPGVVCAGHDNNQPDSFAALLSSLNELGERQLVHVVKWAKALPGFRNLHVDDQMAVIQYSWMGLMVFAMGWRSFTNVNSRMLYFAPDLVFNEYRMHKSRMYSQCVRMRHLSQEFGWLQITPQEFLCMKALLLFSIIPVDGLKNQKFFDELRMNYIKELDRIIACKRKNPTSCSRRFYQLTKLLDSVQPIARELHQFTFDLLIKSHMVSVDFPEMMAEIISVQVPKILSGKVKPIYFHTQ

LXRα = biological target: T4, LXRα (Homo sapiens, UniProt Q13133); test: LXRα reporter gene assay in HEK293; format: cell-based; conditions: read-out: LXRα antagonistic activity (IC50)
T4 construct: CMX-GAL4N-hLXRα-LBD; expressed in transfected cells; host or cells: HEK293
T4 sequence (Q13133 209-447 limits assumed): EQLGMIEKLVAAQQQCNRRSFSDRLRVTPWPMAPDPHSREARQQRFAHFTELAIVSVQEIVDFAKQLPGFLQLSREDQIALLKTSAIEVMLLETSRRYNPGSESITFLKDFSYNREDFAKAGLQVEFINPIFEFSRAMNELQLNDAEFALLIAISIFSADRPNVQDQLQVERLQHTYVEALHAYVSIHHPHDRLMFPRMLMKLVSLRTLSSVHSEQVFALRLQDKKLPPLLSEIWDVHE

PR [1] = biological target: T5, PR (Homo sapiens, UniProt P06401); test: T-47D alkaline phosphatase assay (PR antagonism); format: cell-based; conditions: compared with 7
T5 sequence (P06401 1-933): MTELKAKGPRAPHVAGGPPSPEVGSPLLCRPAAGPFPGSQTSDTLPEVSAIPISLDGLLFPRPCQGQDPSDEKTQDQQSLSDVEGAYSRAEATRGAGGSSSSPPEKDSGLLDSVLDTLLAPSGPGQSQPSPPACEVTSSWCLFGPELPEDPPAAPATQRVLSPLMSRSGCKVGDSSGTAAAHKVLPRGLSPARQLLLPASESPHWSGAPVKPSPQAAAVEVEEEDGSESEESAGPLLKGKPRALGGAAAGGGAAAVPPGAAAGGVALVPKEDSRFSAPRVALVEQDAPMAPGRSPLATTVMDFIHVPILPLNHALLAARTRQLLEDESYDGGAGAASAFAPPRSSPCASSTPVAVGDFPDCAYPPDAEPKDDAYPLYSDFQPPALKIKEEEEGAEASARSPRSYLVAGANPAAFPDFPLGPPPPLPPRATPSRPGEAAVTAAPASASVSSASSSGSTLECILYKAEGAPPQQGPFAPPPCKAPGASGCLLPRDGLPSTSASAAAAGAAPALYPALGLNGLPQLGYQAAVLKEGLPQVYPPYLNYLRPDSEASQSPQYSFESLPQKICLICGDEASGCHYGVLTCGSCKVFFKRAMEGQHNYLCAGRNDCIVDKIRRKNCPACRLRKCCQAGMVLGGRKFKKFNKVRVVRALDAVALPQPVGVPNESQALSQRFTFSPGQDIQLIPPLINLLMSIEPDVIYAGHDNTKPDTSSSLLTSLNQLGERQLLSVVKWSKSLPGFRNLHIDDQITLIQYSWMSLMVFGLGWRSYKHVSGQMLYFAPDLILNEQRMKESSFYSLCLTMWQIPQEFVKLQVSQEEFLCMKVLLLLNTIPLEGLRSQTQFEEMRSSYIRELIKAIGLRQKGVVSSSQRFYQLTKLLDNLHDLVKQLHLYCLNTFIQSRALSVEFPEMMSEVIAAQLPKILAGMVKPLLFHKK

PR [2] = biological target: T5, PR; conditions: alkaline phosphatase, T47D cells, progesterone 1 nM; read-out: PR antagonistic activity (IC50); cited from earlier work
[3] = agonist dihydrotestosterone 0.3 nM, read-out: AR antagonistic activity (IC50), AR reporter gene

| Compound | IC50 (GR) | IC50 (LXRβ) | selectivity for AR over LXRs (AR) | selectivity for AR over PR (AR) | selectivity for AR over RORs and GR (AR) | increase of AR activity (AR; compared with 7) | IC50 (AR; [3]) | IC50 (AR; read-out: AR antagonistic activity IC50) | IC50 (LXRα) | increase of PR activity (PR [1]) | IC50 (PR [2]) |
| --- | --- | --- | --- | --- | --- | --- | --- | --- | --- | --- | --- |
| CCCCn1c(=O)c2ccccc2c2cc(C(O)(C(F)(F)F)C(F)(F)F)ccc21 [Compound 12] | 7.4 µM | 3.7 µM | ~50 fold | about 7.8 fold | more than 200 fold | 9 fold | 1800 nM | 100 nM | 8.4 µM | 6 fold | – |
| CCCCn1c(=O)c2ccc(C(F)(F)F)cc2c2cc(C(O)(C(F)(F)F)C(F)(F)F)ccc21 [Compound 37] | > 20 µM | 4.4 ± 0.8 µM | – | – | – | – | > 20000 nM | – | 7.1 µM | – | 4.2 µM |
